Results published in ChEMBL document CHEMBL1201862, “PubChem BioAssay data set” (2004).
The source made the active and inactive calls.

Experiments:
[1] = molecular target: T1, Eukaryotic translation initiation factor 2-alpha kinase 3 (Homo sapiens, UniProt Q9NZJ5); test: Counterscreen assay for PERK inhibitors: Dose response cell-based high throughput screening assay to measure inhibition of PERK at 6 hours. [Related pubchem assays: 1522, 1416 ]; format: functional
[2] = molecular target: Eukaryotic translation initiation factor 4E (Mus musculus, UniProt P63073); test: eIF4E–eIF4G protein interaction inhibitors, dose response, biochemical, TR-FRET (AID 855); format: functional;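 note: potency for disrupting eIF4E binding to eIF4GI seen as loss of FRET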
[3] = molecular target: T2, Short transient receptor potential channel 4 (Mus musculus, UniProt Q9QUQ5); test: mouse TRPC4 channel inhibitors, dose response, cell-based, HEK293 TRPC4/mu-opioid, Fluo-4 calcium (AID 434942); format: functional;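 note: potency of inhibitors blocking the TRPC4 calcium response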
T2 sequence (Q9QUQ5 whole entry): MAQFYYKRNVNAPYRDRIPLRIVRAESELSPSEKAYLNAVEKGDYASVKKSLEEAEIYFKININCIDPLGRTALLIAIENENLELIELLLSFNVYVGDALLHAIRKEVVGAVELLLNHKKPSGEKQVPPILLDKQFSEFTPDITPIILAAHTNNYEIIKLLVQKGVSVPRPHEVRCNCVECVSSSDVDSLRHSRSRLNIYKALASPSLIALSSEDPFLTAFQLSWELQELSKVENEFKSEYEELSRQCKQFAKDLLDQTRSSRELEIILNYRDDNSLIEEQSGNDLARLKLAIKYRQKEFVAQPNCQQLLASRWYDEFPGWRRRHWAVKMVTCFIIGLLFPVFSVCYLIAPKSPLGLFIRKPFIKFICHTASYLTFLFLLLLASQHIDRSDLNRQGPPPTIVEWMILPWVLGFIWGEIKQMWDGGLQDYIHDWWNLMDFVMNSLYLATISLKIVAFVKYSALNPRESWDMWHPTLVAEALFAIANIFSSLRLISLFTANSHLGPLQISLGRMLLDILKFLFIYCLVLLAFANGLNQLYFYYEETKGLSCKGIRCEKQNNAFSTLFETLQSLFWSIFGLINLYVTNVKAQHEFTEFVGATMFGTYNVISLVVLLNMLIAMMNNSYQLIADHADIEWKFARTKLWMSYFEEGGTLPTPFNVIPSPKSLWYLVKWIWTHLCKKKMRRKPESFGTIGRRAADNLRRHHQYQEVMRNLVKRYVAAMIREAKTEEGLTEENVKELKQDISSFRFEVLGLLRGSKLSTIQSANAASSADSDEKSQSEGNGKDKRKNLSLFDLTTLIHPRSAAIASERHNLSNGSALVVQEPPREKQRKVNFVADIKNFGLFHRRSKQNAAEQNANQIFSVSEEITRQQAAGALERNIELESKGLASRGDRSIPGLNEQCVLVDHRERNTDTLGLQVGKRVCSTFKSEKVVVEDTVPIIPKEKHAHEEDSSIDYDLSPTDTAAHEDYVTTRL

[4] = molecular target: T1, Eukaryotic translation initiation factor 2-alpha kinase 3; test: Dose response cell-based high-throughput screening assay to measure PERK inhibition. [Related pubchem assays: 1416 ]; format: functional
[5] = molecular target: Mothers against decapentaplegic homolog 3 (Homo sapiens, UniProt P84022); test: Smad3 binding inhibitors, lysate ELISA, dose response, cell lysate, secondary confirmation, chemiluminescent ELISA, HEK293 lysate (AID 1058); format: functional
[6] = molecular target: Polyadenylate-binding protein 1 (Homo sapiens, UniProt P11940); test: PABP poly(A) RNA binding inhibitors, primary screen, biochemical, fluorescence polarization, uHTS (AID 2014)
[7] = molecular target: DNA dC->dU-editing enzyme APOBEC-3G (Homo sapiens, UniProt Q9HC16); format: functional;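 note: Dose-response counterscreen measuring inhibition of APOBEC3G DNA deaminase activity, run while confirming APOBEC3A inhibitors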
[8] = molecular target: Eukaryotic translation initiation factor 4H (Homo sapiens, UniProt Q15056); test: human eIF4H binding inhibitors, primary screen, translation initiation inhibitor project, biochemical, uHTS, fluorescence polarization (AID 2012)
[9] = molecular target: DNA dC->dU-editing enzyme APOBEC-3A (Homo sapiens, UniProt P31941); test: Dose Response confirmation of small molecule APOBEC3A DNA Deaminase Inhibitors via a fluorescence-based single-stranded DNA deaminase assay. [Related pubchem assays (depositor defined):AID493011, AID493024]; format: functional
[10] = molecular target: Acyl-homoserine lactone acylase PvdQ (Pseudomonas aeruginosa (strain LESB58), UniProt Q9I194); test: P. aeruginosa PvdQ acylase inhibitors, dose response, biochemical, fluorescence, plate reader and imaging, cherry-picks (AID 493231)
[11] = molecular target: Cyclin-dependent kinase 5/CDK5 activator 1 (Homo sapiens, UniProt Q00535); test: CDK5/p35 kinase inhibitors, dose response, biochemical, cherry-picked samples, set 2 (AID 504545)
[12] = Luminescence Cell-Based Dose Confirmation HTS to Identify Inhibitors of Platelet Dense Granule Release. [Related pubchem assays: 1663 (Primary HTS), 1678 (Summary of Project)]; format: functional
[13] = inhibition of ADP-Glo detection reagents, dose response, artefact control for CDK5 inhibitor project, biochemical, luminescence, cherry-picked samples, set 2 (AID 504546); format: functional
[14] = molecular target: Luciferin 4-monooxygenase (Photinus pyralis, UniProt P08659); test: firefly luciferase enzyme inhibitors, dose response, biochemical, luminescence (AID 1891)
[15] = molecular target: Cytochrome P450 2D6 (Homo sapiens, UniProt P10635); test: qHTS Assay for Inhibitors and Substrates of Cytochrome P450 2D6. [Related pubchem assays: 410 ]; format: ADME; settings: read-out: Potency
[16] = molecular target: Cytochrome P450 2C19 (Homo sapiens, UniProt P33261); test: qHTS Assay for Inhibitors and Substrates of Cytochrome P450 2C19. [Related pubchem assays: 410 ]; format: ADME; settings: read-out: Potency
[17] = molecular target: Bcl-2-like protein 1 (Homo sapiens, UniProt Q07817); test: BCL-XL inhibitors, dose response, selectivity assay for MCL1 inhibitor project, biochemical, fluorescence polarization, 1536-well (AID 2218)
[18] = molecular target: Induced myeloid leukemia cell differentiation protein Mcl-1 (Homo sapiens, UniProt Q07820); test: MCL1-BIM BH3 interaction inhibitors, dose response, biochemical, fluorescence polarization, BIM-BH3 peptide, 1536-well (AID 2217)
[19] = molecular target: T3, Heat shock 70 kDa protein 1A (Homo sapiens, UniProt P0DMV8); test: Hsp70 inhibitors, biochemical, TR-FRET (AID 786)
[20] = molecular target: T3, Heat shock 70 kDa protein 1A; test: Hsp70 inhibitors, probe displacement, primary screen, biochemical, fluorescence polarization (AID 583)
[21] = molecular target: Genome polyprotein (Hepatitis C virus, UniProt Q2Q167); test: HCV core protein dimerization inhibitors, dose response, biochemical, TR-FRET (AID 2159); set-up: species or system Hepacivirus hominis;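 note: blocks dimerization of HCV core protein measured by TR-FRET between tagged core106 pairs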
[22] = molecular target: T4, Sentrin-specific protease 1 (Homo sapiens, UniProt Q9P0U3); test: potency of human SENP1 inhibitors, dose response, biochemical, kinetic FRET (AID 651697); format: functional; settings: read-out: IC50_Mean
T4 sequence (Q9P0U3 whole entry): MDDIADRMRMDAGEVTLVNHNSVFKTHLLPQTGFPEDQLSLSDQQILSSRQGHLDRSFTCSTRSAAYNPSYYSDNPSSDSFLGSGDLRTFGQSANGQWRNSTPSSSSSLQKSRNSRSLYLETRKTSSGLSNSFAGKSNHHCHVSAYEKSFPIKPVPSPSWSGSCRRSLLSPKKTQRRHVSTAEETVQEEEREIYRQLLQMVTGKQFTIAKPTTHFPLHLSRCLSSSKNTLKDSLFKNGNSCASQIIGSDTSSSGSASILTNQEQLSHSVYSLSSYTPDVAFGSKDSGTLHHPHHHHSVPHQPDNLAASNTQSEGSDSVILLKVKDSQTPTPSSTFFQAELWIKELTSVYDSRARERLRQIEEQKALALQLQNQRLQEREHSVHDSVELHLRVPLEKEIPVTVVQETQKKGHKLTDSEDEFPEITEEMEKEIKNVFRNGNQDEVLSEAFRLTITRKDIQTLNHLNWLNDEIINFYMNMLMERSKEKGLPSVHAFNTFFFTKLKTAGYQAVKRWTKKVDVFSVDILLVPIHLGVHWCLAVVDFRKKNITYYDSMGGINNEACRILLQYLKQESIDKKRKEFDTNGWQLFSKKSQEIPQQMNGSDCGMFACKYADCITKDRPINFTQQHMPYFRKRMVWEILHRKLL

[23] = molecular target: T4, Sentrin-specific protease 1; test: Dose response confirmation of small molecule inhibitors of the catalytic domain of the SUMO protease, SENP1 in a FRET assay.; format: functional; settings: read-out: IC50_Mean
[24] = Counterscreen for IDE inhibitors: Luminescence-based cell-based high throughput dose response assay to identify compounds that are cytotoxic to HEK cells. [Related pubchem assays: 434962 (Primary screen (IDE inhibitors in singlicate)), 449730 (Counterscreen (Cytotoxicity in triplicate)), 435028 (Confirmation (IDE inhibitors in triplicate)) …; format: functional; settings: HEK293
[25] = molecular target: T5, Insulin-degrading enzyme (Homo sapiens, UniProt P14735); test: Dose Response: Fluorescence polarization-based cell-based high throughput dose response assay for inhibitors of insulin-degrading enzyme (IDE). [Related pubchem assays: 434962 (Primary screen (IDE inhibitors in singlicate)), 449730 (Counterscreen (Cytotoxicity in triplicate)), 435028 (Confirmation (IDE inhibitors in triplicate)), 434984 (Summary …; format: functional
T5 sequence (P14735 whole entry): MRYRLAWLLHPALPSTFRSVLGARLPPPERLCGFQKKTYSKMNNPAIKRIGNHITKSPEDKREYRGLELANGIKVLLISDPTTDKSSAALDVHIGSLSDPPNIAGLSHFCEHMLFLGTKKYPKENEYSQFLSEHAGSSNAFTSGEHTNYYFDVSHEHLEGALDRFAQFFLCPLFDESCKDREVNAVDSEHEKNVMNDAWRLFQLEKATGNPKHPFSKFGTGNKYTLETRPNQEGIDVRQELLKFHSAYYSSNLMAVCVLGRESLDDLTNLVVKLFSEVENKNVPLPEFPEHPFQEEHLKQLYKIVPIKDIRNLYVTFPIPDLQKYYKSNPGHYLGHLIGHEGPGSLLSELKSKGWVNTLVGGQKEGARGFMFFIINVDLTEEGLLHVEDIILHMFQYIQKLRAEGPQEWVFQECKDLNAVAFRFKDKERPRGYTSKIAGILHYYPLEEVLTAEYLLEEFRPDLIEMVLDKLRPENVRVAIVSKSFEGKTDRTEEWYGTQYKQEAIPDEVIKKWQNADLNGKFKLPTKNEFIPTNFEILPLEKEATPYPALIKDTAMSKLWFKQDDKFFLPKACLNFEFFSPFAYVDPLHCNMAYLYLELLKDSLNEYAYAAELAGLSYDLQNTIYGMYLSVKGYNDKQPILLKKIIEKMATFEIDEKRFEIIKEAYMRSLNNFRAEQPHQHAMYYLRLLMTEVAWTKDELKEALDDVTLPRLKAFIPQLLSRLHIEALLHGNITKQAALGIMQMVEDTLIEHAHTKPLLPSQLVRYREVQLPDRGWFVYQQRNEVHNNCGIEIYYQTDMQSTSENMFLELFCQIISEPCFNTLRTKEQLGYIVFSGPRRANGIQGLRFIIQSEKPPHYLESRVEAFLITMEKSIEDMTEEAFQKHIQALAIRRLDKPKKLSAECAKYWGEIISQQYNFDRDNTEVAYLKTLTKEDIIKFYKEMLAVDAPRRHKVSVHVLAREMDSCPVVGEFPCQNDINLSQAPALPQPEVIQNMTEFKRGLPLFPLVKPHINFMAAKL

[26] = molecular target: Serine/threonine-protein phosphatase (Homo sapiens, UniProt Q9BPW0); test: Counterscreen for inhibitors of PP1: fluorescence-based biochemical high throughput dose response assay to identify inhibitors of Protein Phosphatase 5 (PP5). [Related pubchem assays: 2034 (Summary (PP5 inhibitors)), 1987 (PP5 inhibitors in singlate), 2235 (PP1 inhibitors in singlate)]
[27] = molecular target: Serine/threonine-protein phosphatase PP1-alpha catalytic subunit (Homo sapiens, UniProt P62136); test: PP1 phosphatase inhibitors, dose response, biochemical, fluorescence (AID 2403);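 note: phosphatase turnover of OMFP into fluorescent 3-O-methylfluorescein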

T1 sequence (Q9NZJ5 whole entry): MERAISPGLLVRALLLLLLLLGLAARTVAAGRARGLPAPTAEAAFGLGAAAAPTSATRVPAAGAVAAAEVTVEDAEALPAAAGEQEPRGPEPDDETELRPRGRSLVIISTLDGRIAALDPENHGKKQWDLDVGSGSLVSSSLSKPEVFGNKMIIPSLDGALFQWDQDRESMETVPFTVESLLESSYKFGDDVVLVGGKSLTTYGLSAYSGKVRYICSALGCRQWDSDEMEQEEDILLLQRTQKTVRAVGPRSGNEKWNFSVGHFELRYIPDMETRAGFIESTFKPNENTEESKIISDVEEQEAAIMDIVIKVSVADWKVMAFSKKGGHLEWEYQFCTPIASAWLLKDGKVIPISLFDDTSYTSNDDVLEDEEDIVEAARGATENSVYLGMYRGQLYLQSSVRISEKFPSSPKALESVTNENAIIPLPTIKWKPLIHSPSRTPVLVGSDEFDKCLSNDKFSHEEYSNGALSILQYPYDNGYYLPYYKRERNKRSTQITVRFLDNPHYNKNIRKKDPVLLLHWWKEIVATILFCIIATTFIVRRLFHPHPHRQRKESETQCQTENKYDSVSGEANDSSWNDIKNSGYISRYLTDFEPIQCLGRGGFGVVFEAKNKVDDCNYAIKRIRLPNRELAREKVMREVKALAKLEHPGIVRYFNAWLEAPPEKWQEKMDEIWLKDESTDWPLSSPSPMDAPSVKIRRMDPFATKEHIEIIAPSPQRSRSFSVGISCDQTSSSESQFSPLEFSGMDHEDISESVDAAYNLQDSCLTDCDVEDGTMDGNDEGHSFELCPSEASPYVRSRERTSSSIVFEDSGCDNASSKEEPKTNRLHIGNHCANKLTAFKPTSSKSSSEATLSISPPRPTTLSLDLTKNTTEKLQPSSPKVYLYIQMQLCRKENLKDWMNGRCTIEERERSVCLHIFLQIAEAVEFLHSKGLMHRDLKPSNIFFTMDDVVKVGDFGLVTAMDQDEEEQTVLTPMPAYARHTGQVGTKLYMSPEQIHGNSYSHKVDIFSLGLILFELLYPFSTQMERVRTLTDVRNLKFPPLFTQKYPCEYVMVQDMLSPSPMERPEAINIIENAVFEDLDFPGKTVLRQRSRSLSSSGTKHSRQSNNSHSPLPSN
T3 sequence (P0DMV8 whole entry): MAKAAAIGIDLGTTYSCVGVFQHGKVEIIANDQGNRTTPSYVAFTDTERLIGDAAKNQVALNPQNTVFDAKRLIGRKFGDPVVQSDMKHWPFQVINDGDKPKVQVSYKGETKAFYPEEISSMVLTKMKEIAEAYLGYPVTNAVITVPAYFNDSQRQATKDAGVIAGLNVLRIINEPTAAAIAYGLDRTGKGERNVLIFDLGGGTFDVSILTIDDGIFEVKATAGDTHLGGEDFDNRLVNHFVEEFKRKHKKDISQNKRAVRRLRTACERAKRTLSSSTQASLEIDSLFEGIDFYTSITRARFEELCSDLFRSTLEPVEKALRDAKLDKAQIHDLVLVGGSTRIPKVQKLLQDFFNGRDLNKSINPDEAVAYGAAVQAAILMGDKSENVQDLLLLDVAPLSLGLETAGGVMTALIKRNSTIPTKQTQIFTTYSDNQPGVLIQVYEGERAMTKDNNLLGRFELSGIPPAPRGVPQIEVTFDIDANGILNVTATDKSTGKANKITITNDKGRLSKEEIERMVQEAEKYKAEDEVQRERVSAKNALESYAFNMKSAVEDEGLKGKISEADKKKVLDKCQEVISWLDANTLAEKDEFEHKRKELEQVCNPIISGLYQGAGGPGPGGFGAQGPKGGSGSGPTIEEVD
Sequence of Acyl-homoserine lactone acylase PvdQ (Q9I194 24-193 limits assumed): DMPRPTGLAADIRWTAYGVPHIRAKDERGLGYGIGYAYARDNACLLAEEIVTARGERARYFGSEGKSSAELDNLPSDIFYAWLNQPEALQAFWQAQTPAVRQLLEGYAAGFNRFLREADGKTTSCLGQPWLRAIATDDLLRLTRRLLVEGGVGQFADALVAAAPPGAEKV
Sequence of Acyl-homoserine lactone acylase PvdQ (Q9I194 217-762 limits assumed): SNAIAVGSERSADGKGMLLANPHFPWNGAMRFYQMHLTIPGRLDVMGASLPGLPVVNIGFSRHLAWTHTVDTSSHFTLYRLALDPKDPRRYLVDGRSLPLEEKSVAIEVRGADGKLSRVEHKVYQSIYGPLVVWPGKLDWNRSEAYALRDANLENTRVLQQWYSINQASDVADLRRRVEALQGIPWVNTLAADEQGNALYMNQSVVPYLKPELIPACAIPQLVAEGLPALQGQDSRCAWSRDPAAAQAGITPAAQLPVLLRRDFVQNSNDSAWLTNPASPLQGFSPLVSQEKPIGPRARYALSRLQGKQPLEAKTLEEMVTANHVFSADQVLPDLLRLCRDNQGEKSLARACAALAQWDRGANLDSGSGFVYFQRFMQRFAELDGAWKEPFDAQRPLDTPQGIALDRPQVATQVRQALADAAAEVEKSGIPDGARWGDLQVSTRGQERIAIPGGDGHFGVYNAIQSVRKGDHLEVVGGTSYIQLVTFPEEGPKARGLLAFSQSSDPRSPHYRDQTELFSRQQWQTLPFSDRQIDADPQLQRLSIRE
Sequence of Eukaryotic translation initiation factor 4E (P63073 whole entry): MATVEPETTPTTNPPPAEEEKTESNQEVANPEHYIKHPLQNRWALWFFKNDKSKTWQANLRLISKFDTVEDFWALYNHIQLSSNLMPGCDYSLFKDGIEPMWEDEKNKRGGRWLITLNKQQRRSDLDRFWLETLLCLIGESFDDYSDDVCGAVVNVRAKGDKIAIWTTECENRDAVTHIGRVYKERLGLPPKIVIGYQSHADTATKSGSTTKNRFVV
Sequence of Bcl-2-like protein 1 (Q07817 whole entry): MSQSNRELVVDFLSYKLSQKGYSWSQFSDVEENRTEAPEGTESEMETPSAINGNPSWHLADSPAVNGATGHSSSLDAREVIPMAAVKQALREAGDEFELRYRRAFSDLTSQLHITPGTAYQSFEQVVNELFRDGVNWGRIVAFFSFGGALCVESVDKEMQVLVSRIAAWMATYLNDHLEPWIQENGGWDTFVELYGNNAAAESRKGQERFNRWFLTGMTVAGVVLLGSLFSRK
Sequence of Cytochrome P450 2D6 (P10635 whole entry): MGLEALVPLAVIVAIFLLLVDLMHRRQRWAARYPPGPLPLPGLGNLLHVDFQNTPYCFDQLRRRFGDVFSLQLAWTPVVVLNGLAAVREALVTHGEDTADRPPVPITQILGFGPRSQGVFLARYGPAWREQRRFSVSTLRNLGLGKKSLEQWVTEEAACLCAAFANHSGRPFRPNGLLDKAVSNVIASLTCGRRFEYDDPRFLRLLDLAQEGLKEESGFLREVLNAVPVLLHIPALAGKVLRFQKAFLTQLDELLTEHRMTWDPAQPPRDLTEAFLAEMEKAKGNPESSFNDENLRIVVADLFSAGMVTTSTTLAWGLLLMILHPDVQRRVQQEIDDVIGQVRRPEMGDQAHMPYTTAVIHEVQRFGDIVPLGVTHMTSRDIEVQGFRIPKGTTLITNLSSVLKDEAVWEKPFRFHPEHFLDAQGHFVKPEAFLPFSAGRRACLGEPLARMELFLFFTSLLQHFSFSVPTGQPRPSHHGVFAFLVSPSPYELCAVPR
Sequence of Cytochrome P450 2C19 (P33261 whole entry): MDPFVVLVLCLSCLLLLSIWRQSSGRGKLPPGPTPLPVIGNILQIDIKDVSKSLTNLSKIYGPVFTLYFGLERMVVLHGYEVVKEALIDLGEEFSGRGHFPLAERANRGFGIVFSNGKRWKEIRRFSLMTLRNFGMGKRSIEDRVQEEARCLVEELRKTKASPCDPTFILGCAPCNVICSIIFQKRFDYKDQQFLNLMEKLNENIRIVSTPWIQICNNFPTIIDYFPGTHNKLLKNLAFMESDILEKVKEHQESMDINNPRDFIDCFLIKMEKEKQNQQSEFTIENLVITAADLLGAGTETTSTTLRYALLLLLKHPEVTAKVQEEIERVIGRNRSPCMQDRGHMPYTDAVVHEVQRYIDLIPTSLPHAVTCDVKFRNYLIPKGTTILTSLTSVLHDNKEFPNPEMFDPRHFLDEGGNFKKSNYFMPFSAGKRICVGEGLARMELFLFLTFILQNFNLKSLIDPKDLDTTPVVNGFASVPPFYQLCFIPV
Sequence of DNA dC->dU-editing enzyme APOBEC-3A (P31941 whole entry): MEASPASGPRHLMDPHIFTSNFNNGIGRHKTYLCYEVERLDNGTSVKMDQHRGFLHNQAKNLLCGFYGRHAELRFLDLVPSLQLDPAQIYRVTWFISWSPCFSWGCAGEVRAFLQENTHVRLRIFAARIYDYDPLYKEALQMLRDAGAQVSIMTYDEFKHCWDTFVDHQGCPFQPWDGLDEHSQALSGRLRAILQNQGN
Sequence of Genome polyprotein (Q2Q167 whole entry): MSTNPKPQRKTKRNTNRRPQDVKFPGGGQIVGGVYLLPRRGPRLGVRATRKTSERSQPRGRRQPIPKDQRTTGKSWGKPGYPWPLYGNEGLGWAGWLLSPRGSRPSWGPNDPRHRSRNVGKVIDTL
Sequence of DNA dC->dU-editing enzyme APOBEC-3G (Q9HC16 whole entry): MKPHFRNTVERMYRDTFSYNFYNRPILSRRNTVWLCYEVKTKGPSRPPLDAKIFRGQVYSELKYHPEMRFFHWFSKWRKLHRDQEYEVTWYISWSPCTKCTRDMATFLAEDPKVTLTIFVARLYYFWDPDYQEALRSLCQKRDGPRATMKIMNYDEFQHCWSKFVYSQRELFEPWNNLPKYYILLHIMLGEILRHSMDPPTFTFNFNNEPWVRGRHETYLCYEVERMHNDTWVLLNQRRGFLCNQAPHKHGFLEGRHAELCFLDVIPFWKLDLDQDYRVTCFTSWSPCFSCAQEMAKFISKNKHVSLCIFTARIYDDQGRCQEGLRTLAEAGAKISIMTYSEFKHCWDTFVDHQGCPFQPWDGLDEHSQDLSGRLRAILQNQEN

Cc1cc(/C=C2/C(=N)N3C(=NC2=O)SN=C3S(C)(=O)=O)c(C)n1-c1ccccc1F
EC50 [1]: > 55.7 µM (not active) | IC50 [2]: 50 µM (inactive) | EC50 [3]: 1.19 µM (active) | EC50 [4]: > 55.7 µM (not active)

COc1ccc(C(c2cc3c(cc2O)OCO3)N2CCOCC2)cc1OC (configuration not stated)
IC50 [5]: 12.2 µM (not active)

C=CCNC1=N[C@@H](c2ccccc2)C(C(=O)OC)=C(C)N1CC
IC50 [6]: 9.54 µM (active) | IC50 [7]: 4.51 µM (active) | IC50 [8]: > 100 µM (inactive) | IC50 [9]: 5.62 µM (active)

COc1ccc(/C(C#N)=C/c2ccccn2)cc1
AC50 [10]: 19.9 µM (active)

COc1ccc(C(=O)O/N=C(/C)c2cccs2)cc1
AC50 [11]: 15.7 µM (active) | EC50 [12]: 1.34 µM (active) | AC50 [13]: 31.8 µM (active) | EC50 [14]: 0.517 µM (active)

COc1cc2oc(-c3ccccc3)cc(=O)c2cc1O
AC50 [15]: 31.6 µM (inconclusive) | AC50 [16]: 5.01 µM (inconclusive)

COc1ccc(Br)cc1/C=c1\sc2nc(-c3ccco3)nn2c1=O
IC50 [17]: > 109 µM (not active) | IC50 [18]: 10.8 µM (not active) | IC50 [19]: > 100 µM (not active) | IC50 [20]: > 100 µM (not active) | IC50 [21]: > 49.8 µM (not active)

Cc1c(-n2cc(C(=O)c3cc(Cl)ccc3O)cc(C#N)c2=O)c(=O)n(-c2ccccc2)n1C
IC50 [22]: 13 µM (active) | IC50 [23]: 7.48 µM (active) | IC50 [24]: > 55.7 µM (not active) | IC50 [25]: > 55.9 µM (not active)

COc1ccc2c(Cl)c(C(=O)N/N=C/c3ccncc3)sc2c1
IC50 [26]: > 67 µM (not active) | IC50 [27]: 6.48 µM (active)
